Where two headings read alike, the source gives them in different places. Ends that are not written are not given here.
Experiments:
[1] = tested on: Spontaneous Man-PTS mutants of L. lactis IL1403; assay: 2-fold serial dilutions sensitivity assay, Table S3; type: cell-based, Lactococcus lactis
Source text: (§1) To identify the individual amino acid residues of Man-PTS required for the sensitivity to the newly defined bacteriocins, and thus probably involved in their interaction with the receptor, spontaneous mutants of L. lactis IL1403 and L. garvieae IBB3403 with resistance to individual bacteriocins and preserved Man-PTS functionality were selected. Out of the nine new bacteriocins, five (GarAG3, RhmB, LcnC, EntG1, and MurA) were potent enough to produce resistant mutants in their presence. In total, 34 resistant L. lactis IL1403 mutants were obtained, including three selected in the presence of RhmB, 15 in the presence of EntG1, 2—LcnC, and 14—MurA; 38 resistant L. garvieae IBB3403 mutants were obtained in the presence of GarAG3 (Table S1). They were 4- to over 1,024-fold less sensitive to the bacteriocin used for the selection than the parental strain and carried, respectively, a combined total of 11 and 10 independent mutations in the ptnCD genes of L. lactis IL1403 and the manCD genes of L. garvieae IBB3403. Ten mutations in L. lactis led to amino acid substitutions in IIC (Gly62Val, Ala110Thr, Met120Ile, and Ala187Val) or IID (Gly126Ser, Ala127Thr, Ser214Leu, Gly221Cys, Tyr223Cys, and Gly229Val), and one led to the deletion of eight amino acids (221-228GlyAlaTyrLeuGluPheProLys) in IID.
(§2) The activity of peptides of interest against indicator strains and L. garvieae IBB3403- or L. lactis IL1403-derived strains was determined using the spot-on-lawn assay as described previously ([7]). Spontaneous bacteriocin-resistant mutants were selected by growing L. garvieae IBB3403 or L. lactis IL1403 in the presence of a bacteriocin in CDM ([43]) supplemented with 1% mannose (Man-CDM) as described previously ([7]). GarAG3-resistant L. garvieae IBB3403 mutants (LG1—LG32, LG34–LG38, and LG40) were selected at the bacteriocin concentration of 0.024 µg/mL. L. lactis IL1403 mutants resistant to EntG1 (LLG1–LLG3, LLG7–LLG9, LLG11, LLG12, LLG14, LLG19, LLG21, LLG25, LLG32, LLG46, and LLG50), RhmB (LLB2, LLB3, and LLB17), MurA (LLA1, LLA7, LLA8, LLA12, LLA19–LLA22, LLA24, and LLA26–LLA30), and LcnC (LLC1, LLC2) were selected at bacteriocin concentrations of 12.5µg/mL, 1.56µg/mL, 1.56 µg/mL, and 4 ng/mL, respectively. The sensitivity of the mutants was determined using 2-fold serial dilutions assay as described previously ([7]).
Table S3. Spontaneous mutants of L. lactis IL1403 resistant to RhmB, EntG1, LcnC, MurA, GarQ, BacSJ, ubericin K, and GarC
(§3) Sensitivity to Position in the cell
(§4) Mutant strain Mutation Amino acid change [fold-decreased relative to WT] membrane of affected
RhmB EntG1 LcnC MurA GarQ BacSJ Ubericin GarC Man-PTS amino acid(s)
mutations GlyAlaTyrLeuGluPheProLys
“>” substitution; “del”deletion

[2] = tested on: Vero, HepG2, and Caco-2 cell lines; conditions: ref [36], [37], cited from earlier work
Source text: The use of bacteriocins as antibacterial agents offers a promising solution to some of the most challenging public health problems today, such as the emergence of difficult-to-treat infections caused by antibiotic-resistant pathogens ([29]) or the breakouts of foodborne diseases ([30]). Here, we have identified nine new bacteriocins of which five (MurA, MsnC, RhmB, AglA, and LcbC) could have potential in the treatment of infections caused by vancomycin-resistant Enterococcus faecium and Enterococcus faecalis strains ([31]), and four (MurA, MsnC, RhmB, and AglA) in the prevention of L. monocyto ...

[3] = tested on: Spontaneous Man-PTS mutants of L. garvieae IBB3403; assay: 2-fold serial dilutions sensitivity assay, Table S4; type: cell-based, Lactococcus garvieae
Source text: as §1, §2
Table S4. Spontaneous mutants of L. garvieae IBB3403 resistant to GarAG3, GarA, GarB, GarC, GarQ, MurA, and ubericin K
as §3, §4
GarAG3 GarA GarB GarC GarQ MurA Ubericin Man-PTS amino acid(s)
LG9 manD: 800G>T ManD: Gly267Val 16x 0x 8x 2x 4x 0.5x 4x extracellular (region γ+)
TTGTTGGTAACG 262_265delAsnValValGly
GTAACGGTGTTG 265_268delGlyAsnGlyVal
LGA10 manD: 173C>A ManD: Ala58Asp 8x 2x 4x 4x 2x 2x 8x transmembrane (HP2a)
5 μl of each bacteriocin at a concentration of 1 mg/ml was used; “>” substitution; “del”deletion; “ins” insertion

[4] = molecular target: Man-PTS membrane complex IICIID of L. garvieae (ManCD) (L. garvieae (endogenous in L. garvieae IBB3403))

Substance: EYHLMNGANGYLTRVNGKYVYRVTKDPVSAVFGVISNGWGSAGAGFGPQH [GarQ]
- Sensitivity to [fold-decreased relative to WT] ([1]; LLA1 etc. (MurA-resistant), PtnC: Ala110Thr): 4 x
- Sensitivity to [fold-decreased relative to WT] ([1]; LLB2,LLB3, PtnD: Gly126Ser): 0 x
- Sensitivity to [fold-decreased relative to WT] ([1]; LLB17, PtnD: Ser214Leu): 256 x
- Sensitivity to [fold-decreased relative to WT] ([1]; LLC1, LLC2, PtnC: Gly62Val): 64 x
- Sensitivity to [fold-decreased relative to WT] ([1]; LLG1, LLG2, PtnD: 221-228del): 16 x
- Sensitivity to [fold-decreased relative to WT] ([1]; LLG3, LLG9, LLG11, LLG32, LLG46, PtnD: Gly229Val): 16 x
- Sensitivity to [fold-decreased relative to WT] ([1]; LLG7, LLG19, LLG21, PtnD: Ala127Thr): 8 x
- Sensitivity to [fold-decreased relative to WT] ([1]; LLG8, PtnD: Gly221Cys): 16 x
- Sensitivity to [fold-decreased relative to WT] ([1]; LLG12, LLG14, PtnC: Ala187Val): 8 x
- Sensitivity to [fold-decreased relative to WT] ([1]; LLG25, PtnD: Tyr223Cys): 16 x
- Sensitivity to [fold-decreased relative to WT] ([1]; LLG50, PtnC: Met120Ile): 4 x
- Sensitivity to [fold-decreased relative to WT] ([1]; LLN1, PtnD: Pro123His): > 1024 x
- Sensitivity to [fold-decreased relative to WT] ([1]; M6, PtnD: Arg200His): 8 x
- Sensitivity to [fold-decreased relative to WT] ([1]; M16, PtnD: Leu83Phe): 0 x
- Sensitivity to [fold-decreased relative to WT] ([1]; M19, PtnD: Phe226Ser): 8 x
- Sensitivity to [fold-decreased relative to WT] ([1]; M30, PtnD: Leu197Phe): 16 x
- Cytotoxicity ([2]; highly purified, concentrations up to 1 mg/mL): no cytotoxicity
- Sensitivity to [fold-decreased relative to WT] ([3]; LG1 etc., ManD: Arg203Leu): 0 x
- Sensitivity to [fold-decreased relative to WT] ([3]; LG2, ManC: Gly60Cys): 32 x
- Sensitivity to [fold-decreased relative to WT] ([3]; LG6, ManD: Trp256Leu): 16 x
- Sensitivity to [fold-decreased relative to WT] ([3]; LG9, ManD: Gly267Val): 4 x
- Sensitivity to [fold-decreased relative to WT] ([3]; LG11, 13, 22, 28, ManD: Arg203Cys): 2 x
- Sensitivity to [fold-decreased relative to WT] ([3]; LG12, ManD: 262_265delAsnValValGly): 4 x
- Sensitivity to [fold-decreased relative to WT] ([3]; LG18, ManD: 265_268delGlyAsnGlyVal): 4 x
- Sensitivity to [fold-decreased relative to WT] ([3]; LG23, 29, ManC: Gly188Val): 4 x
- Sensitivity to [fold-decreased relative to WT] ([3]; LG32, ManD: Ser318Leu): 2 x
- Sensitivity to [fold-decreased relative to WT] ([3]; LG36, ManC: Gly60Val): 128 x
- Sensitivity to [fold-decreased relative to WT] ([3]; LGA2, ManC: Leu59Pro): 128 x
- Sensitivity to [fold-decreased relative to WT] ([3]; LGA3, ManC: Gly52Val): 4 x
- Sensitivity to [fold-decreased relative to WT] ([3]; LGA6, ManC:190_191insVal): 4 x
- Sensitivity to [fold-decreased relative to WT] ([3]; LGA10, ManD: Ala58Asp): 2 x
- Sensitivity to [fold-decreased relative to WT] ([3]; LGB6, ManD: Gln313Lys): 2 x
- Sensitivity to [fold-decreased relative to WT] ([3]; LGC1, ManD: Met34Ile): 0 x
- Sensitivity to [fold-decreased relative to WT] ([3]; LGC8, ManD: Tyr226Asp): 16 x
- Sensitivity to [fold-decreased relative to WT] ([3]; LGC13, ManC: Ala106Val): 4 x
- Sensitivity to [fold-decreased relative to WT] ([3]; LGC15, ManD: Ala133Val, Val315Met): 4 x
- Sensitivity to [fold-decreased relative to WT] ([3]; LGN1, ManD: Gly301Val): > 1024 x
- Sensitivity to [fold-decreased relative to WT] ([3]; LGN2, ManD: Ala133Val): 16 x
- Sensitivity to [fold-decreased relative to WT] ([3]; LGN9, ManC: Ala102Val): 16 x
- Sensitivity to [fold-decreased relative to WT] ([3]; PW202, ManC: Pro100His): > 1024 x
- Sensitivity to [fold-decreased relative to WT] ([3]; PW203, ManD: Thr123Ile): > 1024 x
- Sensitivity to [fold-decreased relative to WT] ([3]; PW204, ManD: Pro111Ser): > 1024 x

Substance: GarQ_(Asn9Gly) (peptide)
- minimum inhibitory concentration against L. garvieae IBB3403, fold decrease in activity relative to native GarQ [4]: > 512 fold

Substance: GarQ_(Tyr11Leu) (peptide)
- minimum inhibitory concentration against L. garvieae IBB3403, fold decrease in activity relative to native GarQ [4]: > 512 fold

Substance: PedPA-1: subclass IIa pediocin-like bacteriocin (KYYGNGVTCGKHSCSVDWGKATTCIINNGAMAWATGGHQGNHKC; ends and bridges not checked; cysteine pairing not given here; UniProt P29430 19-62, looked up)
- Cytotoxicity ([2]; up to 400 μg/mL): no cytotoxicity
